Measurements from PubChem BioAssay AID258 (DTP/NCI, 2004).
“And” between values parts separate entries of the source, which are not always exact repeats. Equal entries are not always repeated. Toxic doses and inconclusive results are not listed.

Tested on: CD2F1 mice, L1210 leukemia sc, survival T/C
Assay: NCI In Vivo Anticancer Drug Screen. Data for tumor model L1210 Leukemia (subcutaneous) in CD2F1 (CDF1) mice
Settings: endpoint: median survival time, higher = longer survival
Method in brief: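 T/C ratio: treated-group survival or tumor size over vehicle-control group measurement, in mice carrying transplanted tumors.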

SMILES: N[C@@H](Cc1ccc(N(CCCl)CCCl)cc1)C(=O)O
- T/C (dose: 0.31 mg/kg/injection, schedule: Q01DX009 (ip), vehicle: saline): 96 % of control
- T/C (dose: 0.31 mg/kg/injection, schedule: Q01DX009 (sc), vehicle: saline): 100 % of control
- T/C (dose: 0.62 mg/kg/injection, schedule: Q01DX009 (ip), vehicle: saline): 104 % of control
- T/C (dose: 0.62 mg/kg/injection, schedule: Q01DX009 (sc), vehicle: saline): 104 % of control
- T/C (dose: 0.63 mg/kg/injection, schedule: Q01DX009 (ip), vehicle: saline): 99 % of control
- T/C (dose: 1.0 mg/kg/injection, schedule: Q01DX009 (ip), vehicle: suspension in saline): 121 % of control
- T/C (dose: 1.0 mg/kg/injection, schedule: Q01DX009 (sc), vehicle: saline with Tween-80): 105 % of control and 108 % of control
- T/C (dose: 1.25 mg/kg/injection, schedule: Q01DX009 (ip), vehicle: saline): 112 % of control and 113 % of control and 121 % of control
- T/C (dose: 1.25 mg/kg/injection, schedule: Q01DX009 (sc), vehicle: saline): 115 % of control and 121 % of control
- T/C (dose: 2.0 mg/kg/injection, schedule: Q01DX009 (sc), vehicle: saline with Tween-80): 110 % of control and 124 % of control
- T/C (dose: 2.5 mg/kg/injection, schedule: Q01DX009 (ip), vehicle: saline): 124 % of control
- T/C (dose: 3.0 mg/kg/injection, schedule: Q01DX009 (ip), vehicle: saline): 153 % of control
- T/C (dose: 3.5 mg/kg/injection, schedule: Q01DX009 (ip), vehicle: saline): 168 % of control
- T/C (dose: 4.0 mg/kg/injection, schedule: Q01DX009 (ip), vehicle: saline): 173 % of control
- T/C (dose: 4.0 mg/kg/injection, schedule: Q01DX009 (ip), vehicle: suspension in saline): 169 % of control
- T/C (dose: 4.0 mg/kg/injection, schedule: Q01DX009 (sc), vehicle: saline with Tween-80): 163 % of control
- T/C (dose: 4.5 mg/kg/injection, schedule: Q01DX009 (ip), vehicle: saline): 169 % of control
- T/C (dose: 5.0 mg/kg/injection, schedule: Q01DX009 (sc), vehicle: saline): 153 % of control and 156 % of control
- T/C (dose: 5.3 mg/kg/injection, schedule: Q01DX009 (sc), vehicle: saline): 161 % of control
- T/C (dose: 7.5 mg/kg/injection, schedule: Q01DX009 (sc), vehicle: saline): 104 % of control
- T/C (dose: 8.0 mg/kg/injection, schedule: Q01DX009 (ip), vehicle: suspension in saline): 88 % of control
- T/C (dose: 8.0 mg/kg/injection, schedule: Q01DX009 (sc), vehicle: saline with Tween-80): 168 % of control
- T/C (dose: 10.0 mg/kg/injection, schedule: Q01DX009 (sc), vehicle: saline): 98 % of control
- T/C (dose: 16.0 mg/kg/injection, schedule: Q01DX009 (sc), vehicle: saline with Tween-80): 118 % of control and 87 % of control
- T/C (dose: 18.0 mg/kg/injection, schedule: Q01DX009 (sc), vehicle: saline): 110 % of control
- T/C (dose: 32.0 mg/kg/injection, schedule: Q01DX009 (sc), vehicle: saline with Tween-80): 107 % of control
- T/C (dose: 64.0 mg/kg/injection, schedule: Q01DX009 (sc), vehicle: saline with Tween-80): 108 % of control

SMILES: CN1c2c(nc(N)[nH]c2=O)NCC1CCNc1ccc(C(=O)NC(CCC(=O)O)C(=O)O)cc1 (stereo not given)
- T/C (dose: 200.0 mg/kg/injection, schedule: Q01DX009 (ip), vehicle: other): 150 % of control
- T/C (dose: 200.0 mg/kg/injection, schedule: Q01DX Z (ip), vehicle: other): 155 % of control
- T/C (dose: 200.0 mg/kg/injection, schedule: Q04DX003 (ip), vehicle: other): 116 % of control
- T/C (dose: 400.0 mg/kg/injection, schedule: Q01DX009 (ip), vehicle: other): 155 % of control
- T/C (dose: 400.0 mg/kg/injection, schedule: Q01DX Z (ip), vehicle: other): 155 % of control and 166 % of control
- T/C (dose: 400.0 mg/kg/injection, schedule: Q04DX003 (ip), vehicle: other): 111 % of control
- T/C (dose: 1600.0 mg/kg/injection, schedule: Q04DX003 (ip), vehicle: other): 111 % of control

SMILES: Nc1ccn([C@@H]2C=C(CO)[C@@H](O)[C@H]2O)c(=O)n1
- T/C (dose: 0.13 mg/kg/injection, schedule: Q03HX024 (ip), vehicle: saline): 116 % of control
- T/C (dose: 0.19 mg/kg/injection, schedule: Q03HX024 (ip), vehicle: saline): 112 % of control
- T/C (dose: 0.3 mg/kg/injection, schedule: Q06HX018 (ip), vehicle: saline): 108 % of control
- T/C (dose: 0.44 mg/kg/injection, schedule: Q01DX009 (ip), vehicle: saline): 100 % of control and 103 % of control
- T/C (dose: 0.44 mg/kg/injection, schedule: Q03HX016 (ip), vehicle: saline): 119 % of control
- T/C (dose: 0.44 mg/kg/injection, schedule: Q03HX024 (ip), vehicle: saline): 89 % of control
- T/C (dose: 0.45 mg/kg/injection, schedule: Q01DX009 (ip), vehicle: saline): 103 % of control and 113 % of control (2×)
- T/C (dose: 0.45 mg/kg/injection, schedule: Q01DX009 (sc), vehicle: saline): 99 % of control
- T/C (dose: 0.45 mg/kg/injection, schedule: Q03HX008 (ip), vehicle: saline): 118 % of control
- T/C (dose: 0.45 mg/kg/injection, schedule: Q06HX018 (ip), vehicle: saline): 163 % of control
- T/C (dose: 0.67 mg/kg/injection, schedule: Q03HX008 (ip), vehicle: saline): 119 % of control
- T/C (dose: 0.67 mg/kg/injection, schedule: Q06HX018 (ip), vehicle: saline): 214 % of control
- T/C (dose: 0.8 mg/kg/injection, schedule: Q01DX009 (ip), vehicle: saline): 157 % of control
- T/C (dose: 0.99 mg/kg/injection, schedule: Q03HX008 (ip), vehicle: saline): 120 % of control
- T/C (dose: 1.0 mg/kg/injection, schedule: Q01DX005 (iv), vehicle: saline): 151 % of control
- T/C (dose: 1.0 mg/kg/injection, schedule: Q01DX009 (sc), vehicle: saline): 180 % of control
- T/C (dose: 1.0 mg/kg/injection, schedule: Q03HX016 (ip), vehicle: saline): 161 % of control
- T/C (dose: 1.0 mg/kg/injection, schedule: Q06HX018 (ip), vehicle: saline): 108 % of control
- T/C (dose: 1.2 mg/kg/injection, schedule: Q01DX009 (ip), vehicle: saline): 189 % of control
- T/C (dose: 1.49 mg/kg/injection, schedule: Q01DX005 (iv), vehicle: saline): 97 % of control
- T/C (dose: 1.49 mg/kg/injection, schedule: Q03HX008 (ip), vehicle: saline): 89 % of control
- T/C (dose: 1.5 mg/kg/injection, schedule: Q01DX005 (iv), vehicle: saline): 168 % of control
- T/C (dose: 1.5 mg/kg/injection, schedule: Q01DX009 (sc), vehicle: saline): 182 % of control
- T/C (dose: 2.2 mg/kg/injection, schedule: Q01DX005 (iv), vehicle: saline): 162 % of control
- T/C (dose: 2.23 mg/kg/injection, schedule: Q01DX005 (iv), vehicle: saline): 89 % of control
- T/C (dose: 2.25 mg/kg/injection, schedule: Q01DX009 (sc), vehicle: saline): 97 % of control
- T/C (dose: 3.0 mg/kg/injection, schedule: Q03HX008 (ip), vehicle: saline): 154 % of control
- T/C (dose: 3.3 mg/kg/injection, schedule: Q01DX005 (iv), vehicle: saline): 90 % of control
- T/C (dose: 4.5 mg/kg/injection, schedule: Q03HX008 (ip), vehicle: saline): 113 % of control
- T/C (dose: 4.8 mg/kg/injection, schedule: Q01DX005 (iv), vehicle: saline): 86 % of control
- T/C (dose: 5.0 mg/kg/injection, schedule: Q01DX001 (ip), vehicle: saline): 118 % of control
- T/C (dose: 9.0 mg/kg/injection, schedule: Q03HX004 (iv), vehicle: saline): 152 % of control
- T/C (dose: 10.7 mg/kg/injection, schedule: Q01DX001 (ip), vehicle: saline): 123 % of control
- T/C (dose: 11.2 mg/kg/injection, schedule: Q01DX001 (ip), vehicle: saline): 110 % of control and 123 % of control
- T/C (dose: 11.2 mg/kg/injection, schedule: Q01DX001 (iv), vehicle: saline): 119 % of control
- T/C (dose: 16.9 mg/kg/injection, schedule: Q01DX001 (iv), vehicle: saline): 100 % of control
- T/C (dose: 36.0 mg/kg/injection, schedule: Q01DX001 (ip), vehicle: saline): 154 % of control
- T/C (dose: 37.9 mg/kg/injection, schedule: Q01DX001 (iv), vehicle: saline): 90 % of control
- T/C (dose: 54.0 mg/kg/injection, schedule: Q01DX001 (ip), vehicle: saline): 164 % of control
- T/C (dose: 54.0 mg/kg/injection, schedule: Q01DX001 (iv), vehicle: saline): 158 % of control
- T/C (dose: 56.8 mg/kg/injection, schedule: Q01DX001 (iv), vehicle: saline): 88 % of control
- T/C (dose: 81.0 mg/kg/injection, schedule: Q01DX001 (ip), vehicle: saline): 106 % of control
- T/C (dose: 81.0 mg/kg/injection, schedule: Q01DX001 (iv), vehicle: saline): 103 % of control
- T/C (dose: 121.0 mg/kg/injection, schedule: Q01DX001 (iv), vehicle: saline): 91 % of control
- T/C (dose: 88.0 micrograms/kg/injection, schedule: Q03HX024 (ip), vehicle: saline): 112 % of control
- T/C (dose: 200.0 micrograms/kg/injection, schedule: Q03HX024 (ip), vehicle: saline): 166 % of control
